From article PMC6405930, “Conservation of the Amyloid Interactome Across Diverse Fibrillar Structures” (Scientific Reports, 2019)

Columns and labels:
Ab1 fibrils [1] = tested on: T1, Ab1 fibrils; experiment: Fibril titration with ANS (fluorescence); format: binding, human; conditions: 2.5 μg aggregate material, ANS 20 to 167 μM
T1 construct: Synthetic amyloid β peptide 1–40 was purchased from Caslo Aps (Lyngby, Denmark); purchased Caslo Aps (Lyngby, Denmark); host or cells: synthetic peptide
Protocol: (§1) Fibril material (2.5 μg) was set up in 50 μL phosphate buffer in a 96 well half-area NBS plate (NUNC/Terma). Stepwise ANS titration was conducted from 20 to 167 μM with 100 sec mixing (300 rpm) before each measurement using a FLUOstar Omega plate reader (excitation at […], emission at 485 nm).

Ab2 fibrils [2] = tested on: T2, Ab2 fibrils; experiment: Fibril titration with ANS (fluorescence); format: binding, human; conditions: 2.5 μg aggregate material, ANS 20 to 167 μM
T2 construct: Two structurally distinct fibrils of the Aβ(1–40) peptide associated with AD
Protocol: as §1

FAS4 AD aggregates = tested on: T3, FAS4 AD aggregates; experiment: Fibril titration with ANS (fluorescence); format: binding, human; conditions: 2.5 μg aggregate material, ANS 20 to 167 μM
T3 construct: a mutated version of the FAS1-4 domain of TGFBIp
Protocol: as §1

[3] = tested on: chymotrypsinogen aggregates; experiment: Fibril titration with ANS (fluorescence); format: binding; conditions: 2.5 μg aggregate material, ANS 20 to 167 μM
Protocol: as §1

αSN fibrils [4] = molecular target: T4, αSN fibrils (Homo sapiens, UniProt P37840); experiment: Fibril titration with ANS (fluorescence); format: binding; conditions: 2.5 μg aggregate material, ANS 20 to 167 μM
Protocol: as §1

C-36 fibrils [5] = molecular target: T5, C-36 fibrils (Homo sapiens, UniProt P01009); experiment: Fibril titration with ANS (fluorescence); format: binding; conditions: 2.5 μg aggregate material, ANS 20 to 167 μM
T5 construct: the 36 residue C-terminal fragment of α1-antitrypsin (C-36)
T5 sequence (P01009 383-418 limits assumed): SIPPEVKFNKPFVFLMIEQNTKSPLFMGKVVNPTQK
Protocol: as §1

glucagon fibrils [6] = molecular target: T6, glucagon fibrils (Homo sapiens, UniProt P01275); experiment: Fibril titration with ANS (fluorescence); format: binding; conditions: 2.5 μg aggregate material, ANS 20 to 167 μM
T6 construct: fibrils of the peptide hormone glucagon
T6 sequence (P01275 53-81 limits assumed): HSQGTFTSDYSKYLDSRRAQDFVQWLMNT
Protocol: as §1

Ab1 fibrils [7] = tested on: T1, Ab1 fibrils; experiment: Determination of the binding capacity (dye depletion from supernatant); set-up: species or system human; conditions: 2 nmol dye (20 µM) with 10 μg fibril material, one hour
Protocol: (§2) Control samples (without fibril material) were prepared similarly. Fibrils and fibril-bound ligand were pelleted by centrifugation (17,000 g, 30 min) and the supernatant (90 μL) was transferred to a 96 well half-area plate (Corning 3881).

Ab2 fibrils [8] = tested on: T2, Ab2 fibrils; experiment: as above; set-up: species or system human; conditions: 2 nmol dye (20 µM) with 10 μg fibril material, one hour
Protocol: as §2

αSN fibrils [9] = molecular target: T4, αSN fibrils; experiment: as above; conditions: 2 nmol dye (20 µM) with 10 μg fibril material, one hour
Protocol: as §2

C-36 fibrils [10] = molecular target: T5, C-36 fibrils; experiment: as above; conditions: 2 nmol dye (20 µM) with 10 μg fibril material, one hour
Protocol: as §2

glucagon fibrils [11] = molecular target: T6, glucagon fibrils; experiment: as above; conditions: 2 nmol dye (20 µM) with 10 μg fibril material, one hour
Protocol: as §2

[12] = molecular target: fibrils of a short Aβ fragment; set-up: method as in PMID 23878726; conditions: read-out: dissociation constant; cited from earlier work

ANS fluorescence signal (αSN fibrils [4])	ANS fluorescence signal (C-36 fibrils [5])	ANS fluorescence signal (glucagon fibrils [6])	Ligand bound (binding capacity) (Ab1 fibrils [7]) [nmol/mg fibril]	Ligand bound (binding capacity) (Ab2 fibrils [8]) [nmol/mg fibril]	Ligand bound (binding capacity) (αSN fibrils [9]) [nmol/mg fibril]	Ligand bound (binding capacity) (C-36 fibrils [10]) [nmol/mg fibril]	Ligand bound (binding capacity) (glucagon fibrils [11]) [nmol/mg fibril]	SMILES	ANS fluorescence signal (Ab1 fibrils [1])	ANS fluorescence signal (Ab2 fibrils [2])	ANS fluorescence signal (FAS4 AD aggregates)	ANS fluorescence signal [3]	Kd [12] [µM]
significant fluorescence enhancements	little or no signal at all	little or no signal at all	–	–	–	–	–	O=S(=O)(O)c1cccc2cccc(Nc3ccccc3)c12 [ANS, 8-anilinonaphthalene sulfonate]	little or no signal at all	little or no signal at all	intermediate signal intensities	intermediate signal intensities	–
–	–	–	45	54	123	197	128	O=C(O)c1cc(/C=C/c2ccc(/C=C/c3ccc(O)c(C(=O)O)c3)c(F)c2)ccc1O [FSB, (E,E)-1-fluoro-2,5-bis-(3-hydroxycarbonyl-4-hydroxy)styrylbenzene]	–	–	–	–	–
–	–	–	7	4	6	28	6	O=S(=O)(O)c1cc(S(=O)(=O)O)c2c(/N=N/c3ccccc3)c(O)ccc2c1 [Orange-G]	–	–	–	–	~50
